Measured values published in patent US20020048549A1, “Radioactive transition metal nitride heterocomplex” (priority 1996, published 2002).

Tested on: serotonin receptor
Assay: Regional brain biodistribution of 99mTcN-DESI (Group A vs Group B with unlabeled desipramine)
Format: in vivo, SD rats
Description: The rats were divided into two groups, group A and group B. Into each rat in group A was injected 20 μCi of the ^99mTcN-DESI. Into each rat in group B were injected 20 μCi of the ^99mTcN-DESI and 1.0 mg/kg of unlabeled desipramine at the same time.
SD rats weighing about 250 g were put under intraperitoneal anesthesia with a mixture of xylazine (18 mg/kg) and ketamine (15 mg/kg) and given an injection in the jugular vein. Then, the organs (brain, heart, lung, liver, spleen, kidney, muscle, adrenal, and submaxillary gland) were excised from the rats at different intervals of time, washed and then weighed. In addition, blood samples were collected and then weighed. The data on the biodistribution are expressed as the mean±significant difference of the percentage of radioactivity level per gram of the organ weight based on the dose of radioactivity, (% dose/g). The measurement was carried out using groups of 3 rats each.

[1] = Group A (complex alone), 30 min
[2] = Group A (complex alone), 60 min
[3] = Group B (with 1.0 mg/kg unlabeled desipramine), 5 min
[4] = Group B (with 1.0 mg/kg unlabeled desipramine), 30 min
[5] = Group B (with 1.0 mg/kg unlabeled desipramine), 60 min

## COCCC[P+]1(CCCOC)CCN(CCOC)CC[P+](CCCOC)(CCCOC)[99Tc-2]12(#[N])[NH]C(C(=O)N(C)CCCN1c3ccccc3CCc3ccccc31)C[S]2 (stereo not drawn) [^99mTcN-DESI]
Group A (complex alone), 5 min
  Cerebellum % dose/g: 0.064 ± 0.005 % dose/g
  Cortex % dose/g: 0.029 ± 0.004 % dose/g
  Hypothalamus % dose/g: 0.325 ± 0.058 % dose/g
  Medulla % dose/g: 0.057 ± 0.004 % dose/g
  Striatum % dose/g: 0.076 ± 0.025 % dose/g
[1]
  Cerebellum % dose/g: 0.039 ± 0.015 % dose/g
  Cortex % dose/g: 0.021 ± 0.002 % dose/g
  Hypothalamus % dose/g: 0.408 ± 0.085 % dose/g
  Medulla % dose/g: 0.046 ± 0.003 % dose/g
  Striatum % dose/g: 0.054 ± 0.017 % dose/g
[2]
  Cerebellum % dose/g: 0.028 ± 0.012 % dose/g
  Cortex % dose/g: 0.021 ± 0.002 % dose/g
  Hypothalamus % dose/g: 0.364 ± 0.069 % dose/g
  Medulla % dose/g: 0.029 ± 0.006 % dose/g
  Striatum % dose/g: 0.07 ± 0.019 % dose/g
[3]
  Cerebellum % dose/g: 0.048 ± 0.008 % dose/g
  Cortex % dose/g: 0.014 ± 0.004 % dose/g
  Hypottalamus % dose/g: 0.125 ± 0.029 % dose/g
  Medulla % dose/g: 0.038 ± 0.001 % dose/g
  Striatum % dose/g: 0.053 ± 0.001 % dose/g
[4]
  Cerebellum % dose/g: 0.035 ± 0.007 % dose/g
  Cortex % dose/g: 0.009 ± 0.002 % dose/g
  Hypottalamus % dose/g: 0.162 ± 0.106 % dose/g
  Medulla % dose/g: 0.027 ± 0.013 % dose/g
  Striatum % dose/g: 0.023 ± 0.003 % dose/g
[5]
  Cerebellum % dose/g: 0.031 ± 0.011 % dose/g
  Cortex % dose/g: 0.006 ± 0.000 % dose/g
  Hypottalamus % dose/g: 0.152 ± 0.033 % dose/g
  Medulla % dose/g: 0.016 ± 0.002 % dose/g
  Striatum % dose/g: 0.035 ± 0.011 % dose/g
Group A, no unlabeled desipramine
  accumulation in cortex: specifically accumulated
Group B, unlabeled desipramine administered
  accumulation in cortex: very small amount
Suggested from group A vs group B cortex accumulation
  specificity for serotonin receptor: retained specificity for serotonin receptor
